Results on 19 compounds are retold here after US20240358865A1, “QUINOLINYL AND PRIDINYL CONTAINING COMPOUNDS TARGETING ON ALPHA-SYNUCLEIN FOR NEUROLOGICAL DISEASES” (Washington University, priority 2023, published 2024).

In one experiment the target is alpha-synuclein fibrils (Homo sapiens, UniProt P37840). As to the kind of experiment: Competitive binding to alpha-synuclein fibrils vs [3H]BF2846 (site 9). Particulars: for Ki / Ki (nM), in a-syn fibrils v.s. [3H]BF2846: alpha-synuclein fibrils, radioligand [3H]BF2846, binding site 9; for Ki: read-out: Ki (nM), in a-syn fibrils v.s. [3H]BF2846; for max % inh_site9: maximal inhibition of [3H]BF2846 binding to alpha-synuclein fibrils.

A further experiment deals with AD brain tissue (Homo sapiens, UniProt P05067). Briefly: Competitive binding in AD brain tissue vs [3H]PiB. The note with it: for Ki: AD brain tissue, radioligand [3H]PiB; for max % Inh_PiB: maximal inhibition of [3H]PiB binding in AD brain tissue. The procedure:
The binding potency for Abeta was determined using [^3H]PIB for these new compounds (FIG. 5B).
If the Ki value is smaller, these compounds are potent for AD brain tissue binding and are not selective for alpha-synuclein over abeta, or PD over AD.

Chain of AD brain tissue (P05067 whole entry): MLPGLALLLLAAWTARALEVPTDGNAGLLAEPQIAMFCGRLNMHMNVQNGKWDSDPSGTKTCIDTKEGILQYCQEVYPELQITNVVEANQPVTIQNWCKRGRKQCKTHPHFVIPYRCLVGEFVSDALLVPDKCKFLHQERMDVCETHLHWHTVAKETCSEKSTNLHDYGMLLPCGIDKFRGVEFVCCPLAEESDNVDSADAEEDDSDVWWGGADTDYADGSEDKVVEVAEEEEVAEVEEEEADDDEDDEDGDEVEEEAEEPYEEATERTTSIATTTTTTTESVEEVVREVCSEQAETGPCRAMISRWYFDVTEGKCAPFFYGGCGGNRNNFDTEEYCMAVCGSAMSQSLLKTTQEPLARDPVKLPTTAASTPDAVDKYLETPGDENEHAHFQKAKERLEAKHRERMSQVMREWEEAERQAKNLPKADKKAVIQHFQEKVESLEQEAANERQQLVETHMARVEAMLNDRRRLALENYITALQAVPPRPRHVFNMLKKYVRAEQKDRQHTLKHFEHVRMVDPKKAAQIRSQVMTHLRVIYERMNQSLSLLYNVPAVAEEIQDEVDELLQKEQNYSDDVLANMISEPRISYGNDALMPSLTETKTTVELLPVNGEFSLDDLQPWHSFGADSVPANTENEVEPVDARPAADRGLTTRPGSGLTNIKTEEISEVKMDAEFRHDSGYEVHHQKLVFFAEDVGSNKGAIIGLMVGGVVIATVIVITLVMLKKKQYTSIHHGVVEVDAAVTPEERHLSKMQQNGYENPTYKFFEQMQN

Usually Ki stands for a measure of affinity in units of concentration, obtained from inhibition or displacement. Take `CCc1ccc(Nc2ccc3cc(OCCN4CCCCC4)ccc3n2)cn1` [TZ80-30]: at alpha-synuclein fibrils, the Ki was 14.3 ± 25.4 nM and the “max % inh_site9” value amounted to 100%. For the same compound, on AD brain tissue, the affinity, expressed as Ki, was 158 ± 36 nM and the “max % Inh_PiB” value is listed as 80%.

As to `COc1ccc(Nc2ccc3cc(OCCF)ccc3n2)cn1.Cl` [TZ80-55], the figures for the Ki on alpha-synuclein fibrils and on AD brain tissue were 26.1 nM and more than 1000 nM, respectively. Also, the “max % inh_site9” value on alpha-synuclein fibrils is 70%.

Turning to `COc1ccc(Nc2ccc3cc(OCc4ccncc4)ccc3n2)cn1` [TZ80-42], on alpha-synuclein fibrils, the Ki is 16.6 ± 22.6 nM and the “max % inh_site9” value was 70%. Moreover, on AD brain tissue, the inhibition constant Ki came out at 72 ± 56 nM and the “max % Inh_PiB” value was found to be 60%.

For the compound `COc1ccc(Nc2ccc3ccc(N)cc3n2)cn1` [TZ64-87], at alpha-synuclein fibrils, the Ki stood at 3.07 nM and the “max % inh_site9” value turned out to be 50%. For the same compound, on AD brain tissue, the inhibitory constant (Ki) is 36 ± 30 nM and the “max % Inh_PiB” value amounted to 30%.

Regarding `COc1ccc(Nc2ccc3cc(Br)ccc3n2)cn1` [TZ64-105], the inhibition constant Ki on alpha-synuclein fibrils was 18.7 nM; at AD brain tissue, more than 1000 nM. In addition, the “max % inh_site9” value at alpha-synuclein fibrils was 50%.

In the case of `COc1ccc2nc(Nc3ccc4cn[nH]c4c3)ccc2c1` [TZ88-21], on alpha-synuclein fibrils, the “Ki (nM), in a-syn fibrils v.s. [3H]BF2846” value (from here on “Ki (nM)”) is on record as “None”. At AD brain tissue, the Ki stood at 5.8 ± 4.3 nM and the “max % Inh_PiB” value came out at 100%.

Regarding `COc1ccc2nc(Nc3ccc(C=O)o3)ccc2c1` [TZ64-91], at alpha-synuclein fibrils, the Ki amounted to 1.4 nM and the “max % inh_site9” value is 70%. For the same compound, at AD brain tissue, the Ki stood at 53 ± 34 nM and the “max % Inh_PiB” value came to 50%.

`COc1ccc2nc(Nc3ccnc(OC)c3)ccc2c1.Cl` [TZ80-59-B]: at alpha-synuclein fibrils, the Ki worked out at 17.9 ± 31.7 nM and the “max % inh_site9” value is listed as 70%. For the same compound, at AD brain tissue, the inhibition constant (Ki) is 108 ± 73 nM and the “max % Inh_PiB” value was found to be 100%.

In the case of `COc1ccc2nc(Nc3ccc(N4CCOCC4)nc3)ccc2c1` [TZ88-18], at alpha-synuclein fibrils, the “Ki (nM)” value is reported as “None”. At AD brain tissue, the inhibitory constant (Ki) came to 1.6 ± 0.6 nM and the “max % Inh_PiB” value was found to be 100%.

With `COc1ccc(Nc2ccc3cc(OC/C=C/I)ccc3n2)cn1` [TZ61-84], at alpha-synuclein fibrils, the inhibition constant (Ki) amounted to 21.5 ± 34 nM and the “max % inh_site9” value is listed as 100%. Also, at AD brain tissue, the affinity corresponds to a Ki of 13.2 ± 17.2 nM and the “max % Inh_PiB” value was 90%.

As for `COc1ccc2nc(Nc3nc4ccc(N(C)C)cc4s3)ccc2c1` [TZ80-83], on alpha-synuclein fibrils, the Ki was 24.1 ± 39.7 nM and the “max % inh_site9” value came out at 100%. Besides, at AD brain tissue, affinity was put at a Ki of 50 ± 36 nM and the “max % Inh_PiB” value is on record as 80%.

As to `CSc1ccc(Nc2ccc3cc(OC/C=C/I)ccc3n2)cn1` [TZ80-106], at alpha-synuclein fibrils, the inhibition constant Ki was 15 ± 12.4 nM and the “max % inh_site9” value was 100%. This compound also displayed an inhibition constant (Ki) at AD brain tissue of more than 1000 nM.

Regarding `CCCOc1ccc(Nc2ccc3cc(OCCF)ccc3n2)cn1` [TZ83-41], at alpha-synuclein fibrils, the inhibitory constant (Ki) turned out to be 12.5 nM and the “max % inh_site9” value turned out to be 60%. On AD brain tissue, affinity was put at a Ki of 362 ± 372 nM and the “max % Inh_PiB” value came out at 40%.

With `CC(C)Oc1ccc(Nc2ccc3cc(OCCF)ccc3n2)cn1` [TZ83-39], on alpha-synuclein fibrils, the Ki turned out to be 30.1 nM and the “max % inh_site9” value stood at 60%. Besides, on AD brain tissue, the Ki came to 142 ± 103 nM and the “max % Inh_PiB” value is 20%.

`COc1ccc(Nc2ccc3cc(O)ccc3n2)cn1` [TZ61-23]: at alpha-synuclein fibrils, the Ki was 1.56 nM and the “max % inh_site9” value was 20%. Besides, at AD brain tissue, the Ki turned out to be 36 ± 37 nM and the “max % Inh_PiB” value was 30%.

As to `COc1ccc(Nc2ccc3cc(OC)ccc3n2)cc1` [TZ90-8], on alpha-synuclein fibrils, the “max % inh_site9” value was “Shallow”. Also, on AD brain tissue, the affinity corresponds to a Ki of 2 ± 2.6 nM and the “max % Inh_PiB” value stood at 100%.

`COc1ccc2nc(Nc3ccc(NC(C)=O)nc3)ccc2c1` [TZ88-27]: the “Ki (nM)” value at alpha-synuclein fibrils is given as “None”. This compound showed a Ki at AD brain tissue of more than 1000 nM.

In the case of `COc1ccc(Nc2ccc3cc(OCCF)ccc3n2)cn1` [TZ90-3], the Ki is 34 ± 75.3 nM on alpha-synuclein fibrils and 10.8 ± 8.3 nM at AD brain tissue. The “max % Inh_PiB” value on AD brain tissue amounted to 100%.

Consider `COc1ccc(Nc2nc3ccccc3cc2N)cn1` [TZ64-73], for which, at alpha-synuclein fibrils, the Ki was 4.6 nM and the “max % inh_site9” value was determined as 20%. For the same compound, at AD brain tissue, the affinity corresponds to a Ki of 6.6 ± 2.7 nM and the “max % Inh_PiB” value stood at 30%.
